Values quoted from earlier work as cited in patent publication US5709992A, “Method for disinfecting red blood cells” (priority 1995, dated 1998).

Molecular target: erythrocyte glutathione (GSH) peroxidase (Homo sapiens, UniProt P07203)
Conditions: read-out: Km (peroxide), effective at very low concentrations of peroxide

Sequence of erythrocyte glutathione (GSH) peroxidase (P07203 whole entry): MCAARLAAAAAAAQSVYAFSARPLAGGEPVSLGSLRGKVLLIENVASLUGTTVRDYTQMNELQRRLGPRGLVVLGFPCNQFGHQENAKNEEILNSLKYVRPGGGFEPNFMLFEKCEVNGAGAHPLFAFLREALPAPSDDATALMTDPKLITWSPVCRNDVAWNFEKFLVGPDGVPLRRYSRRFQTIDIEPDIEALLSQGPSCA

Q: With OO [peroxide, hydrogen peroxide] as the compound, how does the Km read?
A: 1 µM
